Test results from US20240034761A1, “REGENERATION OF MAMMALIAN TISSUES USING SYNTHETIC IMMODULINS” (priority 2022, published 2024).
Marks after values point to notes of the source that are not given here. Each block holds one molecule with its values, some of them ahead of it. Square brackets hold non-standard residues; d marks the D form. Ends that are not written are not given here. Peptide text beside a SMILES is read from it.

Legend:
[1] = PIP-binding membrane assay (Membrane Lipid Strips); design: key: —: −−− no binding; +++ strong binding; details: 400 ng peptide
Protocol: N-terminally biotinylated versions of the peptides listed below were used in various assays listed in the examples. For the two types of phosphatidylinositon phosphate (PIP)-binding assays, imm1-imm6 peptides were used.
In the PIP-binding membrane assay, 400 ng of each peptide was bound to Membrane Lipid Strips (Catalog # P-6002, Echelon Biosciences, Salt Lake City, UT) and developed according to the manufacturer's instructions. Binding to PIPs was as follows (−−− no binding; +++ strong binding): […]

[2] = system: THP1-Dual monocyte reporter cell line; assay: THP1-Dual myeloid cell differentiation assay (PMA protocol); assay type: cell-based, human; details: PMA 24 h, then peptide 0.33 uM or 0.66 uM 24 h; for CD169+ (AU) / Clec12A(AU): relative to immX3AVD = 100; for CCL22: culture supernatant
Protocol: (§1) Mammalian cell differentiation assays employed the THP1-Dual monocyte reporter cell line (Invivogen Inc, San Diego, CA) seeded at 2×10e5 cells per well in 96-well plates and cultured at 37 degrees C. in RPMI-1640 growth medium plus 10% fetal bovine serum and 1% penicillin/streptomycin. Cells were subsequently treated for 24 hours with 100 ng/ml Phorbol 12-myristate 13-acetate (PMA protocol; Cayman Chemical Company, Ann Arbor, MI). Peptide (0.33 uM or 0.66 uM, as indicated) was then added, and incubation continued for an additional 24 hours. Culture supernatants were assayed for CCL22. Plates with adherent cells were washed with PBS and assayed for immunoreactivity of surface markers such as CD169, Clec9a or Clec12a using fuorescent tag- or biotin-labeled anti-human antibodies purchased from Miltenyi Biotec (Auburn, CA) and the secondary detection reagent recommended by the manufacturer.

[3] = Plate binding of FITC-labelled heparin to immobilised biotinylated peptides; details: 400 ng peptide/well, 1 ug FITC-heparin, PBS; normalized to immX3 peptide binding = 100
Protocol: (§2) Effects of pH, PIP2 and size classes: Streptavidin-coated 96-well plates (G-Biosciences, St. Louis, MO) were pre-loaded with biotinylated peptides [see Example 1] at 400 ng/well, at room temperature for 60 minutes. The plate was washed with PBS buffer and then 1 ug FITC-labelled heparin or hyaluronic acid (FITC-HMW-HA) in 100 uL PBS buffer was added per well (all tests done in quadruplicate). Incubation proceeded for 90 minutes at room temperature, followed by two PBS washes. The plate was read in a standard laboratory fluorometer (488/525 nm exitation/[…]) and the counts normalized for immX3 peptide binding=100. Values statistically above background are shown in bold font. **p<0.05 versus immX3AVD.

[4] = Plate binding of FITC-labelled hyaluronic acid to immobilised biotinylated peptides; details: 400 ng peptide/well, 1 ug FITC-HMW-HA, PBS; normalized to immX3 peptide binding = 100
Protocol: as §2

[5] = system: C2C12 myoblastic cell line; assay: C2C12 myoblast differentiation, creatine kinase; assay type: cell-based; details: 0.66 uM peptide, 96 hours; helper none; relative to immX3AVD = 100
Protocol: Differentiation assays employed the C2C12 myoblastic cell line (ATCC, Manassas, VA) seeded at 2×10e5 cells per well in 96-well plates and cultured at 37 degrees C. in DMEM growth medium plus 10% fetal bovine serum and 1% penicillin/streptomycin. For differentiation, 10% fetal bovine serum was replaced with 2% horse serum. 0.66 uM peptide was then added, and incubation continued for an additional 96 hours. Plates with adherent cells were washed with PBS, lysed with Lytic-M buffer (Sigma Chemical Company, St. Louis, MO) and the lysates were assayed for creatine kinase using a kit purchased from Bioassay Systems (Cat. #ECPK-100, Hayward, CA). Effects were visually confirmed with microscopy tracking myotube formation. Results were expressed as units per milliliter relative to the control immX3AVD peptide, and p values were also calculated and shown relative to control immX3AVD peptide (** p<0.05 versus immX3AVD control; avg±SD).

[6] = system: Primary human T-cells pre-selected for recognizing GAD65 peptide antigen; assay: GAD65-specific primary T-cell differentiation on peptide-treated THP1-Dual cells; assay type: cell-based; details: peptide 0.66 uM, GAD65 1 ug/ml
Protocol: as §1
Another non-myeloid lineage was also tested. Primary human T-cells pre-selected for recognizing GAD65 peptide antigen, and the peptide antigen itself were purchased from Cellero LLC (Memphis, TN). THP1-Dual cells were treated with both GAD65 peptide antigen (1 ug/ml) and immodulin peptide (0.66 uM) using the protocol described in Example 2. After completion of the myeloid cell differentiation step (24 hours), supernatants were collected and 100,000 primary T-cells were added to each well in RPMI-1640 medium (100 uL per well). Plates were incubated for an additional 96 hours and cell extracts were prepared using CellLytic-M reagent (Sigma Chemical Co., St Louis, MO). Supernatants were assayed for CCL22, IL-10 and TGFbeta, and cell extracts assayed for FoxP3, all by ELISA using reagents from R&D Systems, Minneapolis, MN. The results are shown in the table below (**p<0.05 vs immX3AVD, set to=100): […]

[7] = system: THP1-Dual monocyte reporter cell line; assay: Adjuvant effect of helper molecules on immX3 peptide potency in THP1-Dual assay; assay type: cell-based, human; details: immX3 peptide 330 nM plus helper at 0.1 ug/ml
Protocol: as §1
The THP1-Dual cell differentiation assay was carried out as described above in Example 2, using immX3 peptide (330 nM) in all samples plus the indicated helper or inhibitor molecule. Molecules were purched from Cayman Chemical Company (Ann Arbor, MI) or Sigma Chemical Company (St. Louis, MO). AU=arbitrary ELISA units. **p<0.01.

Binding to Phosphatidylinositol [1]: —
Binding to PtdIns(3,4,5)P [PIP3] [1]: —
Binding to PtdIns(4)P [PIP1] [1]: —
Heparin binding (fluorescence counts) [3]: 97.2 ± 17.3
Hyaluronate binding (fluorescence counts) [4]: 44.9 ± 14.1**
Molecule: N=C(N)NCCC[C@H](NC(=O)[C@H](CCCNC(=N)N)NC(=O)[C@H](CCC(N)=O)NC(=O)CNC(=O)[C@H](CCC(N)=O)NC(=O)[C@H](CO)NC(=O)[C@H](CO)NC(=O)[C@H](CCCNC(=N)N)NC(=O)[C@H](CS)NC(=O)[C@H](CCC(N)=O)NC(=O)[C@H](CCCNC(=N)N)NC(=O)[C@H](CCCCN)NC(=O)[C@H](CCCNC(=N)N)NC(=O)[C@H](Cc1ccc(O)cc1)NC(=O)[C@H](Cc1ccccc1)NC(=O)CNC(=O)[C@H](CCCNC(=N)N)NC(=O)[C@@H](N)Cc1c[nH]cn1)C(=O)NCC(=O)N1CCC[C@H]1C(=O)N[C@@H](CS)C(=O)N[C@@H](Cc1c[nH]c2ccccc12)C(=O)O [imm6] (H-HRGFYRKRQCRSSQGQRRGPCW-OH)
CD169+ (AU) [2]: 19.9 ± 2.3 AU

Molecule: CC(C)[C@H](NC(=O)[C@H](Cc1ccccc1)NC(=O)[C@H](Cc1c[nH]c2ccccc12)NC(=O)[C@H](CS)NC(=O)[C@H](Cc1ccccc1)NC(=O)CNC(=O)[C@H](CCCNC(=N)N)NC(=O)[C@H](CCCCN)NC(=O)[C@H](CCCNC(=N)N)NC(=O)CNC(=O)[C@H](CCCCN)NC(=O)[C@H](CO)NC(=O)[C@@H]1CCCN1C(=O)[C@H](CCCNC(=N)N)NC(=O)[C@H](CS)NC(=O)[C@H](CCC(N)=O)NC(=O)[C@H](CCCCN)NC(=O)[C@H](CCCCN)NC(=O)[C@H](CCCCN)NC(=O)[C@H](Cc1ccc(O)cc1)NC(=O)[C@H](Cc1ccccc1)NC(=O)CNC(=O)[C@H](CCCCN)NC(=O)[C@@H](N)CCCCN)C(=O)N[C@@H](CO)C(=O)O [immX3FVS] (H-KKGFYKKKQCRPSKGRKRGFCWFVS-OH)
CD169+ (AU) [2]: 109.4 ± 4.5 AU
CCL22 [2]: 251.3 ± 5.8 pg/mL

Heparin binding (fluorescence counts) [3]: 7.3 ± 17.1
Hyaluronate binding (fluorescence counts) [4]: 61.1 ± 34.1
Molecule: RNGNFHPKQCHPALDGQRGKCWAVD [immX4AVD]
CD169+ (AU) [2]: 1.0 ± 0.3 AU

Molecule: KKGFYKKKQCRPSKGRKRGFCW(dS)(dV)(dD) (KKGFYKKKQCRPSKGRKRGFCW[dS][dV][dD]; cysteine pairing not given here) [immX3dSdVdD]
CD169+ (AU) [2]: 145.7 ± 9.3 AU
Creatine Kinase Act. [5]: 155.6 ± 14.1** units per milliliter
FoxP3 (AU) ([6]; cell extracts, immX3AVD = 100): 176.6 ± 8.0** AU
CCL22 ([6]; supernatant): 77.8 ± 2.0 pg/mL
IL-10 ([6]; supernatant): 1534 ± 176.4 pg/mL
TGFb ([6]; supernatant): 87.6 ± 10.7 pg/mL

Heparin binding (fluorescence counts) [3]: 55.5 ± 5.7**
Hyaluronate binding (fluorescence counts) [4]: 104.2 ± 14.7
Molecule: KKGFYKKKQCRPSKGRKRGFCW(dA)(dV)(dD) (KKGFYKKKQCRPSKGRKRGFCW[dA][dV][dD]; cysteine pairing not given here) [immX3dAdVdD]
CD169+ (AU) [2]: 183.3 ± 6.4 AU
Clec12A(AU) [2]: 106.6 ± 5.2 AU
Creatine Kinase Act. [5]: 132.8 ± 5.2** units per milliliter

Heparin binding (fluorescence counts) [3]: 56.0 ± 7.3**
Hyaluronate binding (fluorescence counts) [4]: 101.9 ± 16.4
Molecule: SLNPEWNETKGFYKKKQCRPSKGRKRGFCW(dA)(dV)(dD) (SLNPEWNETKGFYKKKQCRPSKGRKRGFCW[dA][dV][dD]; cysteine pairing not given here) [immX3K1dAdVdD]
CD169+ (AU) [2]: 249.3 ± 13.9 AU
Clec12A(AU) [2]: 321.9 ± 25.6 AU
CCL22 [2]: 135.8 ± 24.2 pg/mL

Molecule: KKGFYKKKQCRPSKGRKRGFCW(dA)VD (KKGFYKKKQCRPSKGRKRGFCW[dA]VD; cysteine pairing not given here) [immX3dAVD]
CD169+ (AU) [2]: 104.3 ± 6.1 AU
CCL22 [2]: 247.3 ± 16.1 pg/mL

Binding to Phosphatidylinositol [1]: —
Binding to PtdIns(3,4,5)P [PIP3] [1]: —
Binding to PtdIns(4)P [PIP1] [1]: —
Binding to PtdIns(4,5)P [PIP2] [1]: —
Molecule: CSCC[C@H](NC(=O)[C@H](CO)NC(=O)[C@@H](NC(=O)[C@H](CCC(=O)O)NC(=O)[C@H](CS)NC(=O)[C@H](CCC(N)=O)NC(=O)[C@H](CCCNC(=N)N)NC(=O)[C@H](CO)NC(=O)[C@H](Cc1c[nH]cn1)NC(=O)[C@H](Cc1ccc(O)cc1)NC(=O)[C@H](Cc1ccccc1)NC(=O)CNC(=O)[C@H](CC(N)=O)NC(=O)[C@@H](N)CCCCN)[C@@H](C)O)C(=O)N[C@@H](CC(=O)O)C(=O)NCC(=O)N[C@@H](CCC(=O)O)C(=O)N[C@@H](C)C(=O)NCC(=O)N[C@@H](CC(C)C)C(=O)N[C@@H](CS)C(=O)N[C@@H](Cc1c[nH]c2ccccc12)C(=O)O [imm1] (H-KNGFYHSRQCETSMDGEAGLCW-OH)
CD169+ (AU) [2]: 3.1 ± 2.2 AU

Molecule: NGLLKIKKGFYKKKQCRPSKGRKRGFCWAVD [immX3K4e + 1]
CD169+ (AU) [2]: 128.4 ± 1.4 AU
Creatine Kinase Act. [5]: 178.4 ± 7.6** units per milliliter

Binding to Phosphatidylinositol [1]: —
Binding to PtdIns(3,4,5)P [PIP3] [1]: —
Binding to PtdIns(4)P [PIP1] [1]: —
Binding to PtdIns(4,5)P [PIP2] [1]: —
Heparin binding (fluorescence counts) [3]: 27.4 ± 22.9
Hyaluronate binding (fluorescence counts) [4]: 3.1 ± 9.8
Molecule: CSCC[C@H](NC(=O)[C@H](CCCCN)NC(=O)[C@H](CS)NC(=O)[C@H](CCC(N)=O)NC(=O)[C@H](CCCCN)NC(=O)[C@H](CC(C)C)NC(=O)[C@H](CC(N)=O)NC(=O)[C@H](Cc1ccc(O)cc1)NC(=O)[C@H](CC(C)C)NC(=O)CNC(=O)[C@H](Cc1c[nH]cn1)NC(=O)[C@@H](N)CCCCN)C(=O)N[C@@H](CO)C(=O)N[C@@H](CC(C)C)C(=O)N[C@@H](CC(N)=O)C(=O)NCC(=O)N[C@@H](CCC(N)=O)C(=O)N[C@@H](CCCNC(=N)N)C(=O)NCC(=O)N[C@@H](CCC(=O)O)C(=O)N[C@@H](CS)C(=O)N[C@@H](Cc1c[nH]c2ccccc12)C(=O)O [imm2]
CD169+ (AU) [2]: 3.0 ± 0.5 AU

B1: CSF1 (protein, UniProt P09603 33-554, looked up)
Macrophage colony-stimulating …: EEVSEYCSHMIGSGHLQSLQRLIDSQMETSCQITFEFVDQEQLKDPVCYLKKAFLLVQDIMEDTMRFRDNTPNAIAIVQLQELSLRLKSCFTKDYEEHDKACVRTFYETPLQLLEKVKNVFNETKNLLDKDWNIFSKNCNNSFAECSSQDVVTKPDCNCLYPKAIPSSDPASVSPHQPLAPSMAPVAGLTWEDSEGTEGSSLLPGEQPLHTVDPGSAKQRPPRSTCQSFEPPETPVVKDSTIGGSPQPRPSVGAFNPGMEDILDSAMGTNWVPEEASGEASEIPVPQGTELSPSRPGGGSMQTEPARPSNFLSASSPLPASAKGQQPADVTGTALPRVGPVRPTGQDWNHTPQKTDHPSALLRDPPEPGSPRISSLRPQGLSNPSTLSAQPQLSRSHSSGSVLPLGELEGRRSTRDRRSPAEPEGGPASEGAARPLPRFNSVPLTDTGHERQSEGSFSPQLQESVFHLLVPSVILVLLAVGGLLFYRWRRRSHQEPQRADSPLEQPEGSPLTQDDRQVELPV
notes: Growth factor class
CD169 (AU) [7]: 108.0 ± 32.3 AU
